The record followed here is patent US9499493B2, “2,4-pyrimidinediamine compounds and their uses” (Rigel Pharmaceuticals, Inc., priority 2002, dated 2016).

Assay [1] concerns cultured human mast cells (CHMC). The assay can be described thus: CHMC low cell density IgE activation: tryptase assay. Type of assay: cell-based. The following applies: anti-IgE. The essentials:
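Low-density CHMC assay: donor-adjusted 1000-1500 cells/well, MT buffer, 1 hr 37° C preincubation; anti-IgE stimulus 30 min 37° C versus MT-only controls; supernatant tryptase by substrate, 30 min RT.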

For assay [2] the test system is unchanged. The assay can be described thus: CHMC low cell density ionomycin activation: tryptase assay. Type of assay: cell-based.

For orientation: IC50 means the concentration that gives 50% inhibition. Read a high IC50 as weaker potency. With `COC(=O)COc1cccc(Nc2ncc(F)c(Nc3ccc4c(c3)C(OC)CCO4)n2)c1` (stereo not shown) [R950295, N4-(4-Methoxy-3,4-dihydro-2H-1-benzopyran-6-yl)-5-fluoro-N2-[3-methoxycarbonylmethyleneoxyphenyl]-2,4-pyrimidinediamine], the IC50 in assay [1] was 2.04 µM; in assay [2], 8.79 µM.
The matching figures for `O=C(CNc1cccc(Nc2ncc(F)c(Nc3ccc4c(c3)OCCO4)n2)c1)N(CCO)CCO` [R950199, N2-[3-(N,N′-Bis(2-N-hydroxyethyl)amino)carbonylmethyleneaminophenyl]-N4-(3,4-ethylenedioxyphenyl)-5-fluoro-2,4-pyrimidinediamine]: 0.408 µM and above 10 µM.
The matching figures for `CCOC(=O)C(C)(C)c1ccc(Nc2ncc(F)c(Nc3cccc(O)c3)n2)cc1` [R935152, N2-[4-[(1-Ethoxycarbonyl-1-methyl)ethyl]phenyl]-5-fluoro-N4-(3-hydroxyphenyl)-2,4-pyrimidinediamine]: 0.505 µM and 9.32 µM.
`FC(F)(F)c1cnc(Nc2ccc3c(c2)OCCO3)nc1Nc1ccc2c(c1)OCCO2` [R920669]: the 50% inhibitory concentration (IC50) in assay [1] is 0.42 µM; in assay [2], above 10 µM.
Regarding `COC(=O)c1cc2cc(Nc3nc(Nc4cccc(OCc5noc(C)n5)c4)ncc3F)ccc2o1` [R945131, 5-Fluoro-N4-(2-methoxycarbonylbenzofuran-5-yl)-N2-[3-(5-methyl-1,2,4-oxadiazol-3-yl)methyleneoxyphenyl]-2,4-pyrimidinediamine], the IC50 was 0.77 µM in assay [1] and above 10 µM in assay [2].
The matching figures for `CN(CCO)C(=O)COc1cccc(Nc2ncc(F)c(Nc3ccc4c(c3)OCCO4)n2)c1` [R926766, N4-(3,4-Ethylenedioxyphenyl)-5-fluoro-N2-[3-[N-methyl-N-(2-hydroxyethyl)amino]carbonylmethyleneoxyphenyl]-2,4-pyrimidinediamine]: 0.756 µM and above 10 µM.
For `Cn1nnc(COc2ccc(Nc3ncc(F)c(Nc4ccc(OCc5nnn(C)n5)cc4)n3)cc2)n1` [R945046, N2,N4-Bis[4-(2-methyl-1,2,3,4-tetrazol-5-yl)methyleneoxyphenyl]-5-fluoro-2,4-pyrimidinediamine], in that order: 0.82 µM and above 10 µM.
`N#CCOc1ccc(Nc2nc(Nc3ccc4c(c3)OCCO4)ncc2F)cc1` [R945172, N4-(4-Cyanomethyleneoxyphenyl)-N2-(3,4-ethylenedioxyphenyl)-5-fluoro-2,4-pyrimidinediamine]: the values for the IC50 in assay [1] and in assay [2] were 1.18 µM and above 10 µM, respectively.
The matching figures for `Fc1cnc(Nc2ccc3cn[nH]c3c2)nc1Nc1ccc2c(c1)OC(F)(F)O2` [R935374, N4-(3,4-Difluoromethylendioxyphenyl)-5-fluoro-N2-(indazoline-6-yl)-2,4-pyrimidinediamine]: 0.356 µM and above 10 µM.
For the compound `COC(=O)COc1cccc(Nc2ncc(F)c(Nc3cccc(OCC(=O)OC)c3)n2)c1` [R926255, N2,N4-Bis[(3-methoxycarbonylmethyleneoxy)phenyl]-5-fluoro-2,4-pyrimidinediamine], the IC50 came out at 1.4 µM in assay [1] and 4.5 µM in assay [2].
For the compound `CCOC(=O)C(C)(C)c1ccc(Nc2nc(Nc3ccc4c(c3)OCCO4)ncc2F)cc1` [R935172], the IC50 in assay [1] was 1.39 µM; in assay [2], 6.81 µM.
For `CNC(=O)COc1cc(Nc2ncc(F)c(Nc3ccc(C)c(O)c3)n2)ccc1C` [R926759, 5-Fluoro-N4-(3-hydroxy-4-methylphenyl)-N2-[4-methyl-3-[(N-methylamino)carbonylmethyleneoxy]phenyl]-2,4-pyrimidinediamine], the IC50 in assay [1] is 0.688 µM; in assay [2] it was above 10 µM.
With `Fc1cnc(Nc2ccc3c(c2)CCO3)nc1Nc1ccc2c(c1)CCO2` [R909237, N2,N4-Bis(dihydrobenzofuran-5-yl)-5-fluoro-2,4-pyrimidinediaminediamine], the IC50 in assay [1] and in assay [2] was above 10 µM in each case.
In the case of `CC(=NO)c1cccc(Nc2ncc(F)c(Nc3cccc(C(C)=NO)c3)n2)c1` [R950379, N2,N4-Bis(3-methylcarbonyloximephenyl)-5-fluoro-2,4-pyrimidinediamine], the IC50 in assay [1] is 0.545 µM; in assay [2], above 10 µM.
For `CC(C)NC(=O)COc1cccc(Nc2ncc(F)c(Nc3ccc4c(c3)NCCO4)n2)c1` [R909254, N4-(1,4-Benzoxazin-6-yl)-N2-[3-(N-isopropylamino)carbonylmethyleneoxyphenyl]-5-fluoro-2,4-pyrimidinediamine], in that order: 0.136 µM and above 10 µM.
Turning to `COC(=O)COc1cc(Nc2ncc(F)c(Nc3cccc(O)c3)n2)cc(OCC(=O)OC)c1` [R926926, N2-[3,5-Bis(methoxycarbonylmethyleneoxy)phenyl]-5-fluoro-N4-(3-hydroxyphenyl)-2,4-pyrimidinediamine], the IC50 in assay [1] is 0.401 µM; in assay [2], above 10 µM.
In the case of `CNc1ncc(F)c(Nc2ccc3c(c2)OCCO3)n1` [R950189], the IC50 in assay [1] (Homo sapiens, Mast cell) was 10 µM; in assay [2] (Homo sapiens, Mast cell), above 10 µM.
Consider `CNCCNC(=O)CNc1cccc(Nc2ncc(F)c(Nc3cccc(NCCO)c3)n2)c1` [R950234, 5-Fluoro-N4-[3-(2-hydroxyethylamino)phenyl]-N2-[3-[N-(2-methylamino)ethylamino]carbonylmethyleneaminophenyl]-2,4-pyrimidinediamine], for which the IC50 was 10 µM in assay [1] and above 10 µM in assay [2].
The matching figures for `Fc1cnc(Nc2ccc3[nH]ncc3c2)nc1Nc1ccc2c(c1)OC(F)(F)O2` [R935373, N4-(3,4-Difluoromethylendioxyphenyl)-5-fluoro-N2-(indazoline-5-yl)-2,4-pyrimidinediamine]: 0.274 µM and above 10 µM.
As to `O=C(COc1cccc(Nc2ncc(F)c(Nc3cc(Cl)c(O)c(Cl)c3)n2)c1)N1CCNCC1` [R950188, N4-(3,5-Dichloro-4-hydroxyphenyl)-5-fluoro-N2-[3-(N-piperazino)carbonylmethyleneoxyphenyl]-2,4-pyrimidinediamine], the half-inhibitory concentration (IC50) is 2.33 µM in assay [1] and above 10 µM in assay [2].
For `COC(=O)COc1ccc(Nc2ncc(F)c(Nc3ccc4c(cnn4C)c3)n2)cc1` [R935209, 5-Fluoro-N2-[4-(methoxycarbonylmethyleneoxy)phenyl]-N4-(1-methyl-indazoline-5-yl)-2,4-pyrimidinediamine], in that order: 0.526 µM and 1.03 µM.
For `NC(=O)COc1ccc(Nc2ncc(F)c(Nc3ccc(OCC(N)=O)cc3)n2)cc1` [R945025, N2,N4-Bis[4-(aminocarbonylmethyleneoxy)phenyl]-5-fluoro-2,4-pyrimidinediamine], in that order: above 10 µM and above 10 µM.
As for `CNC(=O)COc1ccc(Nc2ncc(F)c(Nc3ccc(C(C)(C)C)cc3)n2)cc1` [R926712, N4-(4-tert-Butylphenyl)-5-fluoro-N2-[4-(N-methylamino)carbonylmethyleneoxyphenyl]-2,4-pyrimidinediamine], the IC50 in assay [1] was 1.08 µM; in assay [2], above 10 µM.
As to `CC(C)Oc1ccc(Nc2nc(Nc3ccc(OCc4nc(-c5ccccc5)no4)cc3)ncc2F)cc1` [R935135, 5-Fluoro-N4-(4-isopropoxyphenyl)-N2-[4-(3-phenyl-1,2,4-oxadiazol-5-yl)methyleneoxyphenyl]-2,4-pyrimidinediamine], the IC50 is 10 µM in assay [1] and above 10 µM in assay [2].
As for `Nc1cccc(Nc2nc(Nc3cccc(NCCOCc4ccccc4)c3)ncc2F)c1` [R950176, N4-(3-Aminophenyl)-N2-[3-(N-benzyloxyethyleneamino)phenyl]-5-fluoro-2,4-pyrimidinediamine], the figures for the IC50 in assay [1] and in assay [2] were 1.34 µM and above 10 µM, respectively.
The matching figures for `CNC(=O)COc1cccc(Nc2nc(Nc3cc(OC)cc(OC)c3)ncc2F)c1` [R926810, N2-(3,5-Dimethoxyphenyl)-N4-[3-(N-methylamino)carbonylmethyleneoxyphenyl)-5-fluoro-2,4-pyrimidinediamine]: 1.22 µM and above 10 µM.
The matching figures for `Oc1cccc(Nc2nc(Nc3ccc(OCc4nnn[nH]4)cc3)ncc2F)c1` [R920818, 5-Fluoro-N4-(3-hydroxyphenyl)-N2-[4-(1,2,3,4-tetrazol-5-yl)methyleneoxyphenyl]-2,4-pyrimidinediamine]: above 10 µM and above 10 µM.
The matching figures for `CNC(=O)COc1cccc(Nc2ncc(F)c(Nc3ccc(C)c(OC)c3)n2)c1` [R926902, 5-Fluoro-N2-[3-[(N-methylamino)carbonylmethyleneoxy]phenyl]-N4-(3-methoxy-4-methylphenyl)-2,4-pyrimidinediamine]: 1.37 µM and 4.59 µM.
Turning to `CCOC(=O)COc1ccc(Nc2ncc(C(F)(F)F)c(Nc3ccc(OCC(=O)OCC)cc3)n2)cc1` [R925862, N2,N4-Bis[4-(ethoxycarbonylmethyleneoxy)phenyl]-5-trifluoromethyl-2,4-pyrimidinediamine], the IC50 was 0.7 µM in assay [1] and above 10 µM in assay [2].
`OCCn1ncc2cc(Nc3nc(Nc4cccc(O)c4)ncc3F)ccc21` [R935259, 5-Fluoro-N4-[1-(2-hydroxyethyl)indazoline-5-yl]-N2-(3-hydroxyphenyl)-2,4-pyrimidinediamine]: the 50% inhibitory concentration (IC50) in assay [1] is 1.78 µM; in assay [2], above 10 µM.
Consider `O=C(O)COc1ccc(Nc2ncc(F)c(Nc3ccc(OCC(=O)O)cc3)n2)cc1` [R926560, N2,N4-Bis(4-carboxymethyleneoxy)phenyl-5-fluoro-2,4-pyrimidinediamine], for which the IC50 in assay [1] and in assay [2] was above 10 µM throughout.
`O=C(CNc1cccc(Nc2ncc(F)c(Nc3cccc(NCCO)c3)n2)c1)NCCO` [R950231, 5-Fluoro-N4-[3-(2-hydroxyethylamino)phenyl]-N2-[3-[N-(2-hydroxyethylamino)]carbonylmethyleneaminophenyl]-2,4-pyrimidinediamine]: the IC50 in assay [1] was 1.97 µM; in assay [2], above 10 µM.
